A word on the GI50: it is the concentration giving 50% growth inhibition. One may read the TGI as the concentration at which net growth stops. The low end stands for more potent growth arrest, the high end for less potent growth arrest.

Several values for one entry are separate records, joined by “and”; a condition that tells them apart may be missing. Equal values may be shown once.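 Five concentrations, 48 hours, 96-well plates. GI50: concentration for 50% inhibition of growth. TGI denotes the concentration required for complete inhibition of growth.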 Where only a bound is given, the exact number is not on record here.

Holding throughout (test): DTP human tumour cell line panel, 48 h
Assay [1] has as its system BT-549 breast.
In assay [2] the test system is HCT-116 colon.
The test system of assay [3] is HOP-62 NSCLC.
Assay [4] has as its system LOX IMVI melanoma.
For assay [5], the system named is MALME-3M melanoma.
For assay [6], the system named is NCI-H460 lung.
Assay [7] has as its system NCI-H522 lung.
Assay [8] relates to OVCAR-3 ovarian.
Assay [9] has as its system SF-268 CNS.
Assay [10] has as its system SK-MEL-5 melanoma.

Consider `N=C1/C(=C2\Nc3ccccc3S2)CC(=O)N1c1ccc(SC(F)F)cc1`, for which the GI50 in assay [1] was greater than 100000 nM; in assay [2], 8890 nM; in assay [3], 1490 nM; in [4], 2210 nM; in assay [5], greater than 100000 nM; in assay [6], 810 nM. For the same compound, the GI50 was 17300 nM in assay [7], 17100 nM in [8], 4450 nM in assay [9] and 5850 nM in assay [10]. Further, the concentration for total growth inhibition (TGI) in assay [1] was greater than 100000 nM; in assay [2], greater than 100000 nM; in assay [3] it was 14700 nM; in [4], greater than 100000 nM; in assay [5], greater than 100000 nM; in assay [6], 30900 nM. Also, the total growth inhibition concentration (TGI) in [7], in assay [8], in assay [9] and in [10] was greater than 100000 nM throughout.

With `CCN1C(=O)N(CC)C2C1NN=c1s/c(=C\c3ccc(OC)cc3)c(=O)n12` (centres undefined), the 50% growth inhibitory concentration (GI50) is 288 nM in assay [1]; 188 nM in [2]; 381 nM in assay [3]; 233 nM in [4]; 304 nM in assay [5]; 242 nM in assay [6]. Also, the 50% growth inhibitory concentration (GI50) in assay [7] is 105 nM; in assay [8], 114 nM; in [9] it was 577 nM; in [10], 192 nM. For the same compound, the TGI in [1] is greater than 25100 nM; in assay [2], greater than 100000 nM; in assay [3], greater than 59400 nM; in assay [4], greater than 100000 nM; in [5] it was greater than 100000 nM; in [6], greater than 100000 nM. Further, the TGI in assay [8] was 526 nM; in assay [9], greater than 80100 nM; in assay [10] it was 1640 nM.

For `CCCc1n(Cc2ccc3ccccc3n2)cc[n+]1Cc1ccc2ccccc2n1`, the GI50 was 1300 nM in assay [1]; 2810 nM in assay [2]; 4170 nM in assay [3]; 2430 nM in assay [4]; 1170 nM in assay [5]; 2440 nM in assay [6]. Moreover, the GI50 in assay [7] is 438 nM; in [8], 705 nM; in assay [9] it was 2300 nM; in assay [10], 866 nM. The TGI came to 8000 nM in assay [1]; 13100 nM in [2]; 17900 nM in assay [3]; 10900 nM in assay [4]; 7510 nM in assay [5]; 11500 nM in assay [6]. Moreover, the concentration for total growth inhibition (TGI) in [7] stood at 5070 nM; in [8] it was 10600 nM; in assay [9], 14200 nM; in [10], 2360 nM.

Turning to `COc1cc(-c2nn(-c3cccc(NC(=O)CCN4CCN(C)CC4)c3)cc2-c2ccncc2)ccc1Cl`, the GI50 in [1] is 7260 nM; in assay [2], 904 nM; in assay [3], 1360 nM; in assay [4], 922 nM; in assay [5], 847 nM; in assay [6], 532 nM. Besides, the GI50 is 283 nM in assay [7], 363 nM in [8], 1430 nM in assay [9] and 529 nM in assay [10]. Moreover, the concentration for total growth inhibition (TGI) in assay [1] is 20400 nM; in [2], 4170 nM; in assay [3], 4380 nM; in [4], 2220 nM; in [5] it was 2360 nM; in [6] it was 2280 nM. Moreover, the total growth inhibition concentration (TGI) in assay [7] stood at 1080 nM; in assay [8], 1750 nM; in [9], 3530 nM; in assay [10], 1860 nM.

For the compound `CC(=O)C(C=O)C(C)=O.CC(=O)CC(C)=O.CC(=O)CC(C)=O.[Ru]`, the GI50 in assay [1] is 7270 nM; in [2], 21800 nM; in [3], 32400 nM; in assay [4], 13600 nM; in assay [5] it was 24600 nM; in assay [6], 28500 nM. The GI50 in [7] is 16400 nM; in assay [8] it was 2150 nM; in assay [9], 34800 nM; in [10] it was 27.9 nM. Further, the total growth inhibition concentration (TGI) in assay [1] is 69500 nM; in assay [2] it was greater than 100000 nM; in [3], greater than 100000 nM; in [4], 80300 nM; in assay [5] it was 96900 nM; in assay [6], greater than 100000 nM. Further, the TGI in assay [7] is 55100 nM; in [8] it was 26300 nM; in assay [9] it was greater than 100000 nM; in [10], 2100 nM.

In the case of `COc1ccc2nc3cc(Cl)ccc3c(Nc3cc(C(C)C)c(O)cc3C)c2c1`, the GI50 in [1] is 588 nM; in assay [2], 1590 nM; in assay [3] it was 1910 nM; in assay [4], 1790 nM; in assay [5], 1790 nM; in [6], 1710 nM. The GI50 in [7] is 1790 nM; in assay [8], 1690 nM; in [9], 2350 nM; in [10] it was 1610 nM. Moreover, the total growth inhibition concentration (TGI) in assay [1] was determined as 2890 nM; in assay [2], 2950 nM; in assay [3], 3480 nM; in [4], 3300 nM; in assay [5] it was 4400 nM; in assay [6] it was 3450 nM. The TGI in assay [7] was 3650 nM; in [8] it was 3260 nM; in assay [9], 6860 nM; in assay [10], 3100 nM.

For `CNc1ncc2cc(-c3cc(NC(=O)NCCC(C)(C)C)c(F)cc3C)c(C)nc2n1`, the GI50 is 3290 nM and 2490 nM in assay [1]; 80.5 nM and 85.8 nM in assay [2]; 195 nM and 298 nM in assay [3]; 102 nM and 57.3 nM in assay [4]; < 10 nM and 4.62 nM in [5]; 473 nM and 332 nM in assay [6]. Moreover, the concentration for 50% growth inhibition (GI50) in [7] is 294 nM and 333 nM; in [8], 1930 nM and 1890 nM; in assay [9], 716 nM and 721 nM; in assay [10], 458 nM and 309 nM. Further, the concentration for total growth inhibition (TGI) is greater than 100000 nM in assay [1]; 11800 nM and > 10000 nM in assay [2]; 12700 nM and > 10000 nM in assay [3]; 2230 nM and 2000 nM in assay [4]; < 11 nM and 52.2 nM in assay [5]; greater than 100000 nM in assay [6]. The TGI is greater than 20900 nM in [7]; greater than 100000 nM in assay [8]; greater than 100000 nM in assay [9]; 16300 nM and > 10000 nM in assay [10].

For the origin of these results see PubChem BioAssay (NCI).
